Key:
[1] = molecular target: T1, interaction between RAD52 and RPA proteins (Homo sapiens, UniProt P43351); assay: Ni-NTA pull-down of the RAD52-RPA interaction; assay type: binding; conditions: 3 μM RAD52, 3 μM RPA, 3 μM compound
T1 construct: made in house

[2] = molecular target: T2, RAD52 (Homo sapiens, UniProt P43351); assay: WaterLOGSY NMR binding to RAD52; conditions: 20-40 μM compound, 3.3 μM RAD52
T2 construct: made in house
T2 sequence (P43351 1-418): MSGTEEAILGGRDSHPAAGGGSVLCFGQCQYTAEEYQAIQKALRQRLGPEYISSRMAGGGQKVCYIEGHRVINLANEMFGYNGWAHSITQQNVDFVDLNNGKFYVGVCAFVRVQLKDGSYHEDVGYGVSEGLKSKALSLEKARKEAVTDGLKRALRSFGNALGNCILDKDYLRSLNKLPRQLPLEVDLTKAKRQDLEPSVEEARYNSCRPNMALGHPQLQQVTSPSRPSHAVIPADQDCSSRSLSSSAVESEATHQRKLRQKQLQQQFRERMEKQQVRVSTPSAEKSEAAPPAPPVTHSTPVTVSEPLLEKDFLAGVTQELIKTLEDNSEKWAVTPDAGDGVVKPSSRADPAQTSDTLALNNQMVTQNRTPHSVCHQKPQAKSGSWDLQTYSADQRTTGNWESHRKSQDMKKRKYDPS
Source text: To confirm that the selected compounds bind RAD52, we employed water-ligand observation with gradient spectroscopy (WaterLOGSY), an NMR technique, which is based on transfer of magnetization from bulk water to the protein-bound compound of interest ([Dalvit et al., 2001], [2000]). In WaterLOGSY spectrum, if a compound binds to a protein, the compound will receive negative nuclear Overhauser effects (NOEs) due to the slow tumbling of the protein-compound complex, leading to a positive WaterLOGSY peak. […] Similarly, the binding of ‘6’to RAD52 is evident from the positive WaterLOGSY peaks that are clearly detected for this compound (Figure 3a).
Compound binding to RAD52 and RPA proteins was analyzed using water-ligand observation with gradient spectroscopy (WaterLOGSY) NMR experiments ([Dalvit et al., 2001], [2000]). The WaterLOGSY spectra of compounds in the presence of RAD52 or RPA were acquired using a water NOE mixing time of 1 s and a T2 relaxation filter of 50 ms just before data acquisition to suppress the broad signals derived from protein. The protein buffer used in the experiments contains 10 mM Tris-d11, 75 mM KCl, 0.25 mM EDTA, pH 7.5, and 10% D20. All NMR data were acquired on a Bruker Avance II 800 MHz NMR spectrometer equipped with a sensitive cryoprobe and recorded at 25°C. The ^1H chemical shifts were referenced to 2,2-dimethyl-2-silapentane-5-sulfonate (DSS). NMR spectra were processed using NMR Pipe ([Delaglio et al., 1995]) and analysed using NMR View ([Johnson and Blevins, 1994]).

[3] = molecular target: T3, RAD52-dsDNA interaction (Homo sapiens, UniProt P43351); assay: FRET-based RAD52-dsDNA binding assay; conditions: 1 nM dsDNA, 10 nM RAD52
T3 construct: made in house
T3 sequence (P43351 1-418): T2 sequence (P43351 1-418)

[4] = system: MUS81; assay: Anaphase bridges in aphidicolin-treated cells (MUS81 activity); assay type: cell-based, human; conditions: GM01604, 0.2 µM aphidicolin 24h, increasing concentration of compound
Experimental: Figure 5. Inhibiting the RAD52-ssDNA interaction interferes with RAD52/MUS81-mediated DSB formation essential for replication fork recovery in check point deficient cells. (a) Representative images showing fields of cells from the comet assay for untreated, as well as from UCN01 (300 nM) and HU (2 mM) treated cells in the presence and absence of ‘1’, ‘6’, and siRAD52. (b) ‘1’ and ‘6’ at 1 or 25 μM recapitulate RAD52 depletion. GM1604 cells, transfected or not with siRNAs against RAD52, were treated as indicated, in the presence or absence of the inhibitor. At the end of treatment, DSBs were analyzed by neutral comet assay. Data are presented as the mean ± SEM from two independent experiments; p values are shown in the graph when differences are statistically significant. (c–d) Inhibitors ‘1’ and ‘6’, respectively decrease the mean tail moment following HU treatment with IC50 values ranging from mid nanomolar to low micromolar. Cells were treated as in (b). Data are from three independent experiments. DOI: http://dx.doi.org/10.7554/eLife.14740.012 Figure 5—figure supplement 1. […] (a) GM01604 wild-type fibroblasts were transfected with CTRL or MUS81 siRNA. Forty eight hours after transfection the fibroblasts were lysed and analysed by WB with the indicated antibodies. […] (c) The presence of anaphase bridges, as shown in the representative images, was scored in DAPI-stained cells. […]

[5] = molecular target: T4, RPA-ssDNA interaction (Homo sapiens, UniProt P15927+P27694+P35244); assay: FRET titration of the RPA-Cy3-dT30-Cy5 complex; assay type: binding; conditions: range of tested concentrations
T4 construct: made in house
T4 sequence (P27694 whole entry): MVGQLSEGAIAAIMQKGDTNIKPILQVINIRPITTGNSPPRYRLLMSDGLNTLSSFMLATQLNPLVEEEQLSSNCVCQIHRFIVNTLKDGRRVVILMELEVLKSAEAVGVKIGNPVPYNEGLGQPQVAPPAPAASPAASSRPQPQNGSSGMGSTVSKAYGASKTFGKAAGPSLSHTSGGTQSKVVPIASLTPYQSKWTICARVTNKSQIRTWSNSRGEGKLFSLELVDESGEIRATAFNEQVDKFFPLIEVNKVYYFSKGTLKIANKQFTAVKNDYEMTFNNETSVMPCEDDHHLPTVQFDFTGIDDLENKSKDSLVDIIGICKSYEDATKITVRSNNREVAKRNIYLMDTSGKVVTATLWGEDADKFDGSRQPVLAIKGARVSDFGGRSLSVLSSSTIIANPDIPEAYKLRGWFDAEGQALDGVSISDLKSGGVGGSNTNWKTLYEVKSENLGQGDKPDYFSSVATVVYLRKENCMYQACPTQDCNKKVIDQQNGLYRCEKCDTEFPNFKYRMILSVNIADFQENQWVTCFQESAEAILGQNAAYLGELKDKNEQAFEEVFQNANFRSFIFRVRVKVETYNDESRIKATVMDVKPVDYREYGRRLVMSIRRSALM
T4 sequence (P15927 whole entry): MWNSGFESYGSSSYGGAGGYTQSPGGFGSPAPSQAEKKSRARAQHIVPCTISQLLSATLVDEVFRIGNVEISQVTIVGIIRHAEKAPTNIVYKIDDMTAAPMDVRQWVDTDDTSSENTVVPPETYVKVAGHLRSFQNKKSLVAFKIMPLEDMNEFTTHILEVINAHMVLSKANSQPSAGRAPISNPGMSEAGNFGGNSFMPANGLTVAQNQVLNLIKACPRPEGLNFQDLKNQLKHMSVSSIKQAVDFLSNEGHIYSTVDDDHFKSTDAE
T4 sequence (P35244 whole entry): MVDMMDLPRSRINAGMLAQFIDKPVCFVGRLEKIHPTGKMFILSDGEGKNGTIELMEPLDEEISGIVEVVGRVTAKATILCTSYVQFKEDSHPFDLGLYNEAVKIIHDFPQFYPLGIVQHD
Source text: In the cell, ssDNA is typically found in complex with Replication protein A (RPA), the major eukaryotic ssDNA-binding protein essential for DNA replication, repair and recombination ([Wold, 1997]; [Oakley and Patrick, 2010]; [Chen and Wold, 2014]). The RPA-ssDNA complex is a physiologically relevant substrate for the RAD52-mediated strand annealing. […] RPA binds ssDNA with high affinity and extends the ssDNA to its contour length. In our assays such an extension manifests as a distinct FRET state of ~0.3, which is readily distinguished from a FRET state of ~0.48 of free Cy3-dT30-Cy5 ssDNA, as well as ~0.63 FRET of the stoichiometric ssDNA-RPA-RAD52 complex (see Figure 2—figure supplement 1 and ([Grimme and Spies, 2011]) for details). […] Both, however, inhibited the RAD52 binding to and wrapping of RPA-coated ssDNA with IC50 values identical to those determined without RPA (Figure 2e and Figure 3e).
In all experiments, the FRET values for each data point were corrected for the effects of the compounds on the respective substrate in the absence of RAD52.

T1 sequence (P27694 whole entry partner, one chain of several): as the sequence (P27694 whole entry) above
T1 sequence (P15927 whole entry partner, one chain of several): as the sequence (P15927 whole entry) above
T1 sequence (P35244 whole entry partner, one chain of several): as the sequence (P35244 whole entry) above

Q: With `Oc1cc(O)c2c(c1)O[C@H](c1cc(O)c(O)c(O)c1)[C@H](O)C2` [Compound 1, (−)−Epigallocatechin] as the compound, how does the “effect on the RAD52-RPA interaction” value [1] read?
A: Its value is “neither ‘1’ nor ‘6’ interfered with the interaction between the two proteins”.

Q: And the “binding to RAD52 (WaterLOGSY)” value [2]?
A: Its value is “physically interact with RAD52 protein”.

Q: What about the “effect on the RAD52-dsDNA interaction” value [3] of the same compound?
A: Its value is “had no effect on the RAD52-dsDNA interaction”.

Q: What about the “effect on MUS81 activity (anaphase bridges)” value [4] of the same compound?
A: The value was “does not affect MUS81 activity”.

Q: What about the “effect on the RPA-ssDNA interaction” value [5] of the same compound?
A: The value was “neither ‘1’ nor ‘6’ affected the RPA-ssDNA interaction”.

— paper PMC4982760, “Small-molecule inhibitors identify the RAD52-ssDNA interaction as critical for recovery from replication stress and for survival of BRCA2 deficient cells” (eLife, 2016)
